# Results taken from ChEMBL document CHEMBL5727231, “Farnesoid X receptor agonists and uses thereof” (2019).
# Target: T1, Bile acid receptor (Homo sapiens, UniProt Q96RI1)
# T1 sequence (Q96RI1 whole entry): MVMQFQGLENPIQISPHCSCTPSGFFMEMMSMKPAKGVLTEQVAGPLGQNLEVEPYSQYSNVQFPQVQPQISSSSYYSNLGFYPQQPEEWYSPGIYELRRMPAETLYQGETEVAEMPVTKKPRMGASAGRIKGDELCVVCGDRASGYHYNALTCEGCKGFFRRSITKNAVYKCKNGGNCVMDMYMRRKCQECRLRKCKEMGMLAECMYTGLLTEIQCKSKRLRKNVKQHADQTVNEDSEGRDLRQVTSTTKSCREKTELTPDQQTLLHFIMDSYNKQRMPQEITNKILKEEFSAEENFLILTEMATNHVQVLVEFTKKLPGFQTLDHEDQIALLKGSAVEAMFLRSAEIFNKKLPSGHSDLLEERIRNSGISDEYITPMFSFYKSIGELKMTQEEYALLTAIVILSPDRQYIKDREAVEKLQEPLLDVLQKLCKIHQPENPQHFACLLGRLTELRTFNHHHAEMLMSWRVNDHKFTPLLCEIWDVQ
# Experiment: In Vitro FXR Assay (TK): SeedingCV-1 cells were seeded at a density of 2,000,000 cells in a T175 flask with DMEM+10% charcoal double-stripped FBS and incubated at 37° C. in 5% CO2 for 18 h (O/N).TransfectionAfter 18 h of incubation, the medium in the T175 flask was changed with fresh DMEM+10% charcoal super-stripped serum. In a polypropylene tube, 2500 μL OptiMEM (Life Technologies, Cat #31985-062) was combined with expression plasmids for hFXR, hRXR, TK-ECRE-luc and pCMX-YFP. The tube was then briefly vortexed and incubated at room temperature for 5 minutes. Transfection reagent (X-tremeGENE HP from Roche, Cat #06 366 236 001) was added to the OptiMEM/plasmid mixture vortexed and incubated at room temperature for 20 minutes. Following incubation, the transfection reagent/DNA mixture complex was added to cells in the T175 flask and the cells were incubated at 37° C. in 5% CO2 for 18 h (O/N).Test CompoundsCompounds were serially diluted in DMSO and added to transfected CV-1 cells. The cells were then incubated for 18 hrs. The next day cells were lysed and examined for luminescence.
row,EC50 [nM],SMILES
1,< 1000,COC(=O)c1ccc2c(N(C[C@H]3CC[C@H](c4cccc(OC)c4)CC3)C(=O)CC(C)(C)C)nccc2c1
2,< 1000,COC(=O)c1ccc2c(N(C[C@H]3CC[C@H](c4ccc(OC)c(C)c4)CC3)C(=O)C3CCCCC3)nccc2c1
3,< 1000,COC(=O)c1ccc2c(N(C[C@H]3CC[C@H](c4ccc(C)cc4)CC3)C(=O)CC(C)(C)C)nccc2c1
